Experiments:
hEPO [1] = test: IM EPO expression of LNPs containing phosphatidylcholine helper lipids; type: in vivo, female BALB/cJ mice; conditions: PC/CL-C formulations, helper lipid 13.5 mol %, DOPE = 1
Description: (§1) EPO expression studies were conducted with female BALB/cJ mice 6-8 weeks of age. Mice were dosed with […] EPO mRNA in 30 μL of LNPs by a single intramuscular (IM) injection into the gastrocnemius leg muscle. Blood samples were taken 6 and 24 hours post injection and hEPO levels were measured in the blood serum of the mice using an ELISA assay according to the manufacture's protocol. WO2022/099003 A1 also describes an in vivo assay for intramuscular administration (e.g. on page 46, paragraph [00206]).
(§2) Lipid nanoparticles were formulated containing the four lipid components shown below, complexed with a hEPO messenger RNA. • Cationic lipid CL-C, 40 mol % • Helper lipid, 13.5 mol % • Cholesterol, 44.8 mol % • DMG-PEG-2K (1,2-dimyristoyl-rac-glycero-3-methoxypolyethyleneglycol), 1.67 mol %
EPO expression studies were performed as described above in Example 3.

hEPO [2] = test: IV EPO expression of LNPs (tail vein injection); type: in vivo, female BALB/cJ mice; conditions: cationic lipid CL-0137, helper lipid 30 mol %; 0.017 μg EPO mRNA tail vein; 6 hours; DOPE = 1
Description: as §2, with “below at a ratio of 40:30:28.5:1.5,” for “below,”, “CL-0137,” for “CL-C,”, “30” for “13.5”, “28.5” for “44.8”, “1.5” for “1.67”
EPO expression studies were conducted with female BALB/cJ mice 6-8 weeks of age. Mice were dosed with 0.017 μg EPO mRNA LNPs in a volume of 5 ul by a single tail vein injection. Blood samples were taken 6 hours post injection and hEPO levels were measured in the blood serum of the mice using an ELISA assay according to the manufacture's protocol.

[3] = Dynamic light scattering of lipid nanoparticles (size, PDI); type: physicochemical
Description: (§3) Lipid nanoparticle formulations 3 were prepared by Process A at a molar ratio of 40:1.5:30:28.5 (Cationic Lipid: DMG-PEG2000: Cholesterol: Helper Lipid) with the cationic lipids and helper lipids disclosed in the tables below. The Polydispersity Index (Pdl) of lipid nanoparticles can be determined by diluting the formulation in 10% trehalose at about 0.1 mg/ml mRNA concentration and then measuring the size on Malvern zetasizer. The lipid nanoparticle size can be obtained with Malvern Zetasizer Nano-ZS.
Dynamic light scattering (DLS) measurements were performed using a Malvern Instruments Zetasizer with a backscattering detector angle of 173° and a 4-mW, 633-nm He—Ne laser (Worcestershire, UK). The samples were analyzed by diluting in 10% Trehalose and measuring the size and Poly dispersity Index (PDI) in an optical grade polystyrene cuvette.

hEPO [4] = test: IM EPO expression of LNPs containing new helper lipids (hEPO in serum by ELISA); type: in vivo, female BALB/cJ mice; conditions: single IM injection; for 24-h EPO: serum 24 hours post injection
Description: Lipid nanoparticles were formulated containing the four lipid components shown below at a ratio of 40:30:28.5:1.5, complexed with a hEPO messenger RNA. • Cationic lipid, 40 mol % • Phospholipid (PEA) helper lipid, 30 mol % • Cholesterol, 28.5 mol % • DMG-PEG-2K (1,2-dimyristoyl-rac-glycero-3-methoxypolyethyleneglycol), 1.5 mol % The cationic lipid component of each formulation was selected from the compounds in the table below: […]
as §1

[5] = mRNA encapsulation efficiency of lipid nanoparticles; type: physicochemical; conditions: for Encapsulation efficiency (EE): LNP with cationic lipid CL-A
Excerpt: In embodiments, the lipid nanoparticle encapsulates a nucleic acid, optionally an mRNA encoding a peptide or protein. In embodiments, the lipid nanoparticle encapsulates an mRNA encoding a peptide or protein, optionally for use in a vaccine. In embodiments, the peptide is an antigen. As used herein, the phrase “encapsulation percentage” refers to the fraction of therapeutic agent (e.g. mRNA) that is effectively encapsulated within a liposomal-based vehicle (e.g. a lipid nanoparticle) relative to the initial fraction of therapeutic agent present in the lipid phase. In embodiments, the lipid nanoparticles have an encapsulation percentage for mRNA of at least 50%. In embodiments, the lipid nanoparticles have an encapsulation percentage for mRNA of at least 55%. In embodiments, the lipid nanoparticles have an encapsulation percentage for mRNA of at least 60%. In embodiments, the lipid nanoparticles have an encapsulation percentage for mRNA of at least 65%. In embodiments, the lipid nanoparticles have an encapsulation percentage for mRNA of at least 70%. In embodiments, the lipid nanoparticles have an encapsulation percentage for mRNA of at least 75%. In embodiments, the lipid nanoparticles have an encapsulation percentage for mRNA of at least 80%. In embodiments, the lipid nanoparticles have an encapsulation percentage for mRNA of at least 85%. In embodiments, the lipid nanoparticles have an encapsulation percentage for mRNA of at least 90%. In embodiments, the lipid nanoparticles have an encapsulation percentage for mRNA of at least 95%. In embodiments, the encapsulation percentage is calculated by performing the Ribogreen assay (Invitrogen) with and without the presence of 0.1% Triton-X 100.
The lipid nanoparticles in the examples of the present invention were formulated using Process A of WO 2018/089801 (see, e.g., Example 1 and FIG. 1 of WO 2018/089801). Process A (“A”) relates to a conventional method of encapsulating mRNA by mixing mRNA with a mixture of lipids, without first pre-forming the lipids into lipid nanoparticles. In an exemplary process, an ethanolic solution of a mixture of lipids (cationic lipid, phosphatidylethanolamine, cholesterol, and polyethylene glycol-lipid) at a fixed lipid to mRNA ratio were combined with an aqueous buffered solution of target mRNA at an acidic pH under controlled conditions to yield a suspension of uniform LNPs. After ultrafiltration and diafiltration into a suitable diluent system, the resulting nanoparticle suspensions were diluted to final concentration, filtered, and stored frozen at −80° C. until use.
as §3

[6] = LNP with cationic lipid CL-A, hEPO mRNA, 40:30:28.5:1.5
[7] = CL-B LNP, serum 6 hours post injection
[8] = CL-A LNP, 0.1 μg EPO mRNA in 30 μL, serum 6 hours post injection

Polydispersity Index (PDI) ([3]; LNP with cationic lipid CL-A)	Size [3, 6] [nm]	PDI ([3]; LNP with cationic lipid CL-B)	Size ([3]; LNP with cationic lipid CL-B) [nm]	PDI ([3]; LNP with cationic lipid CL-C)	Size ([3]; LNP with cationic lipid CL-C) [nm]	Encapsulation efficiency (EE) [5] [%]	EE ([5]; LNP with cationic lipid CL-B) [%]	EE ([5]; LNP with cationic lipid CL-C) [%]	PDI ([3]; LNP with cationic lipid CL-D)	Size ([3]; LNP with cationic lipid CL-D) [nm]	EE ([5]; LNP with cationic lipid CL-D) [%]	Structure (SMILES)	Normalized Mean EPO expression (hEPO [1])	Normalized Mean IV EPO expression (hEPO [2])	6-h EPO (hEPO [4]; [7]) [ng/mL]	24-h EPO (hEPO [4]; CL-B LNP) [ng/mL]	6-h EPO (hEPO [4]; CL-C LNP) [ng/mL]	6-h EPO (hEPO [4]; CL-C LNP, (6-h)) [ng/mL]	6-h EPO (hEPO [4]; [8]) [ng/mL]
0.048	166	0.127	141.9	0.112	98.0	94	96	93	–	–	–	CCCCCCCCC(CCCCCCCC)OC(=O)CCCCCCC(=O)OC[C@@H](COP(=O)(O)OCCN(C)C)OC(=O)CCCCCCC(=O)OC(CCCCCCCC)CCCCCCCC [Compound 13]	–	1.47	53.8	–	–	64.4	8.348
0.048	125	0.112	104.7	0.123	109.5	85	86	87	–	–	–	CCCCCCCCC(CCCCC)COC(=O)CCC(=O)OCC(COP(=O)(O)OCCN)OC(=O)CCC(=O)OCC(CCCCC)CCCCCCCC (stereo not drawn) [Compound 4, O,O′-(3-(((2-Aminoethoxy)(hydroxy)phosphoryl)oxy)propane-1,2-diyl) bis(2-pentyldecyl) disuccinate]	–	2.38	13.7	11.6	20.1	22.3	–
0.09	120	0.111	88.2	0.099	87.4	88	92	92	0.089	121.9	85	CCCCCCCCOC(=O)CCCCCCCC(=O)OCC(COP(=O)(O)OCCN(C)C)OC(=O)CCCCCCCC(=O)OCCCCCCCC (stereo not drawn) [Compound 7, O′^1,O^1-(3-(((2-(Dimethylamino)ethoxy)(hydroxy)phosphoryl)oxy)-propane-1,2-diyl) 9-dioctyl di(nonanedioate)]	–	0.52	3.7	1.4	2.6	5.5	–
0.083	138	0.087	110.7	0.091	108.0	95	94	91	–	–	–	CCCCCCCCC(CCCCCCCC)OC(=O)CCCCCC(=O)OCC(COP(=O)(O)OCCN(C)C)OC(=O)CCCCCC(=O)OC(CCCCCCCC)CCCCCCCC (stereo not drawn) [Compound 15, O′^1,O^1-(3-(((2-(Dimethylamino)ethoxy)(hydroxy)phosphoryl)oxy)propane-1,2-diyl) 7-di(heptadecan-9-yl) di(heptanedioate)]	–	2.24	30	–	–	15.2	25.3

The next lines start with the compound.

Structure (SMILES)	Polydispersity Index (PDI) ([3]; LNP with cationic lipid CL-A)	Size [3, 6] [nm]	PDI ([3]; LNP with cationic lipid CL-B)	Size ([3]; LNP with cationic lipid CL-B) [nm]	PDI ([3]; LNP with cationic lipid CL-C)	Size ([3]; LNP with cationic lipid CL-C) [nm]	Encapsulation efficiency (EE) [5] [%]	EE ([5]; LNP with cationic lipid CL-B) [%]	EE ([5]; LNP with cationic lipid CL-C) [%]	PDI ([3]; LNP with cationic lipid CL-D)	Size ([3]; LNP with cationic lipid CL-D) [nm]	EE ([5]; LNP with cationic lipid CL-D) [%]	Normalized Mean EPO expression (hEPO [1])	Normalized Mean IV EPO expression (hEPO [2])	6-h EPO (hEPO [4]; [7]) [ng/mL]	24-h EPO (hEPO [4]; CL-B LNP) [ng/mL]	6-h EPO (hEPO [4]; CL-C LNP) [ng/mL]	6-h EPO (hEPO [4]; CL-C LNP, (6-h)) [ng/mL]	6-h EPO (hEPO [4]; [8]) [ng/mL]
CCCCCCCCC(CCCCCCCC)OC(=O)CCCCCCC(=O)OC[C@H](COP(=O)([O-])OCC[N+](C)(C)C)OC(=O)CCCCCCC(=O)OC(CCCCCCCC)CCCCCCCC [Compound 41, (R)-2,3-Bis((8-(heptadecan-9-yloxy)-8-oxooctanoyl)oxy)propyl (2-(trimethylammonio)ethyl) phosphate]	–	–	–	–	–	–	–	–	–	–	–	–	1.3	1.7	–	–	–	–	–
CCCCCCCCCCCCCCCC(=O)OC[C@H](COP(=O)(O)OCC[N+](C)(C)C)OC(=O)CCCCCCC(=O)OC(CCCCCCCC)CCCCCCCC [Compound 57, (R)-2-((8-(Heptadecan-9-yloxy)-8-oxooctanoyl)oxy)-3-(palmitoyloxy)propyl (2-(trimethylammonio)ethyl) phosphate]	–	–	–	–	–	–	–	–	–	–	–	–	0.9	–	–	–	–	–	–
CCCCCCCCCC(CCCCCCCCC)C(=O)OCC(COP(=O)(O)OCCN(C)C)OC(=O)C(CCCCCCCCC)CCCCCCCCC (stereo not drawn) [Compound 9, 3-(((2 (Dimethylamino)ethoxy)(hydroxy)phosphoryl)oxy)-propane-1,2-diyl bis(2-nonylundecanoate)]	0.126	112	0.113	108.2	0.087	110.1	84	78	78	–	–	–	–	3.68	5.6	3.3	12.2	22.3	–
CCCCCCCCC(CCCCCCCC)OC(=O)CCCCCCC(=O)OCC(COP(=O)(O)OCC[N+](C)(C)C)OC(=O)CCCCCCC(=O)OC(CCCCCCCC)CCCCCCCC (stereo not drawn) [Compound 24, 2-(((2,3-Bis((8-(heptadecan-9-yloxy)-8-oxooctanoyl)oxy)propoxy)(hydroxy)-phosphoryl)oxy)-N,N,N-trimethylethan-1-aminium]	0.055	160	0.111	107.0	0.116	108.8	94	87	85	–	–	–	–	1.82	29.4	–	–	19.5	19.2
CC(C)CCCCOC(=O)CCCCCCC(=O)OCC(COP(=O)(O)OCCN(C)C)OC(=O)CCCCCCC(=O)OCCCCC(C)C (stereo not drawn) [Compound 8, O′^1,O^1-(3-(((2-(Dimethylamino)ethoxy)(hydroxy)phosphoryl)-oxy)propane-1,2-diyl) 8-bis(5-methylhexyl) di(octanedioate)]	0.06	116	0.146	92.3	0.102	91.1	89	18	87	0.061	151.4	28	–	0.29	–	–	0.5	1.4	–
